{"source": "patent US5089424A", "about": "“Method and apparatus for heterogeneous chemiluminescence assay” (Abbott Laboratories, priority 1989, dated 1992)", "key": {"[1]": {"test_system": "anti-PCP antibody", "test": "Fluorescence polarization competitive binding assay in solution (TDx), fluorescein-labeled PCP analog", "details": "0 ng/mL: 198"}, "[2]": {"test_system": "Monoclonal anti-phenylcyclidine antibody", "test": "Ion-capture acridinium labeled chemiluminescence competitive binding immunoassay for phenylcyclidine (PCP) in urine", "details": "for Signal Counts: integrated for eight seconds, 0 ng/mL: 188329", "method": "Monoclonal anti-phenylcyclidine antibody was labeled with acridinium sulfonamide using EDAC coupling procedures known in the art. It was kept in the same buffer used for the anti-core conjugate of Example 3.\n80 μL of IMx Tris buffer solution followed by 80 μL Celquat™ L-200 solutions were dispensed on the glass fiber matrices of the disposable reaction tray. Solutions were dispensed using two FMI-RH pumps and controlled via a triac board by an Intel 310 Development System (Intel Inc., Sunnyvale, Calif.). The tray was moved on a linear track using a timing belt and a stepper motor. The stepper motor was controlled by a board employing components known in the art. After 4.8 minutes, 50 μL of calibrator (sample) was pipetted into the shallow reaction wells of a disposable reaction tray, using an automated pipettor. 50 μL of acridinium labeled anti-PCP antibodies was dispensed into each incubation well. The mixture was incubated for 9.6 minutes in a heated tunnel at 32° C. with the disposable device moving into the tunnel by the timing belt in steps at the rate of 0.8 inches per minute, the reaction tray being stationary for 36 seconds after each step for a reaction step to take place. After 9.6 minutes incubation on the moving timing belt, 50 μL a solution containing PCP-PGA capture reagent at a concentration of 1.9 mg PGA/mL was dispensed into the incubation well through a tip centered on the well. The capture reagent solution was dispensed by an FMI-RH pump and controlled by the 310 Development system through a triac interface board. The reaction mixture was further incubated for 9.6 minutes. The quaternary ammonium polymer-treated glass fiber matrices were rinsed with 100 μL of the IMx buffer before reaction mixture transfer.\nAs the disposable tray was positioned under the transfer device as described herein, the reaction mixture was transferred and washed from the shallow incubation well onto the pre-treated glass fiber matrix in the detection well. The disposable tray was moved on the timing belt to allow subsequent well pairs to be located under the transfer device and to affect transfer of the reaction mixture. The disposable device was then moved to a read position, where the chemiluminescence detection head of the present invention was lowered to mate with the surface feature on the first two wells on the disposable to create a light-tight seal. The retained and immobilized immune complex on the glass fiber matrix was triggered using 0.3% alkaline peroxide solution in 0.25M NaOH and the signal from each PMT/amplifier was controlled by a counter/timer board and each side was triggered with an independent pump. The photon counter signal was integrated for eight seconds."}, "[3]": {"test_system": "Anti-phenylcyclidine antibodies", "test": "Ion-capture alkaline phosphatase labeled chemiluminescence competitive binding immunoassay for phenylcyclidine in urine", "details": "0 ng/mL: 3526"}}, "data": [{"smiles": "c1ccc(C2(N3CCCCC3)CCCCC2)cc1", "note": "[Phenylcyclidine, phenylcyclidine]", "values": [{"measurement": "Net Polarization", "setting": "[1]; Table 4, 25 ng/mL", "value": "173 ΔmP"}, {"measurement": "Net Polarization", "setting": "[1]; Table 4, 60 ng/mL", "value": "144 ΔmP"}, {"measurement": "Net Polarization", "setting": "[1]; Table 4, 250 ng/mL", "value": "82 ΔmP"}, {"measurement": "Net Polarization", "setting": "[1]; Table 5, 25 ng/mL", "value": 173}, {"measurement": "Net Polarization", "setting": "[1]; Table 5, 60 ng/mL", "value": 144}, {"measurement": "Net Polarization", "setting": "[1]; Table 5, 120 ng/mL", "value": 112}, {"measurement": "Net Polarization", "setting": "[1]; Table 5, 250 ng/mL", "value": 82}, {"measurement": "Net Polarization", "setting": "[1]; Table 5, 500 ng/mL", "value": 65}, {"measurement": "% Inhibition", "setting": "[2]; 25 ng/mL PCP in human urine", "value": 73.3, "unit": "%"}, {"measurement": "Signal Counts", "setting": "[2]; 25 ng/mL PCP in human urine", "value": 50347, "unit": "counts"}, {"measurement": "% Inhibition", "setting": "[2]; 60 ng/mL PCP in human urine", "value": 83.6, "unit": "%"}, {"measurement": "Signal Counts", "setting": "[2]; 60 ng/mL PCP in human urine", "value": 30839, "unit": "counts"}, {"measurement": "% Inhibition", "setting": "[2]; 120 ng/mL PCP in human urine", "value": 87.3, "unit": "%"}, {"measurement": "Signal Counts", "setting": "[2]; 120 ng/mL PCP in human urine", "value": 23977, "unit": "counts"}, {"measurement": "% Inhibition", "setting": "[2]; 250 ng/mL PCP in human urine", "value": 89.2, "unit": "%"}, {"measurement": "Signal Counts", "setting": "[2]; 250 ng/mL PCP in human urine", "value": 20379, "unit": "counts"}, {"measurement": "% Inhibition", "setting": "[2]; 500 ng/mL PCP in human urine", "value": 89.5, "unit": "%"}, {"measurement": "Signal Counts", "setting": "[2]; 500 ng/mL PCP in human urine", "value": 19759, "unit": "counts"}, {"measurement": "Chemiluminescence signal", "setting": "[3]; 25 ng/mL phenylcyclidine in human urine", "value": 2162, "unit": "counts/6 seconds"}, {"measurement": "Chemiluminescence signal", "setting": "[3]; 60 ng/mL phenylcyclidine in human urine", "value": 1440, "unit": "counts/6 seconds"}, {"measurement": "Chemiluminescence signal", "setting": "[3]; 250 ng/mL phenylcyclidine in human urine", "value": 1016, "unit": "counts/6 seconds"}]}]}
